pIC50: −log10 of the molar value. Calls of active or inactive are those of the source. The rule behind the calls is not given here.
System: T. cruzi-infected H9C2 cardiomyocytes, high-content imaging
Assay: intracellular T. cruzi amastigote inhibition, imaging, H9C2 host cardiomyocytes, host toxicity (AID 1159565);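 note: infected cells incubated 72 h after plating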
[1] = measured here: H9C2 host cell toxicity
[2] = measured here: amastigotes per cell

SMILES	pIC50	pIC50 [1]	pIC50 [2]	IC50
CNC(=O)Oc1ccc(C(=O)NCc2ccccc2)cc1OC(=O)NC	4.40	< 4.30	4.40	–
CC(Cn1ccnc1)NC(=O)C=Cc1ccc(Cl)cc1 (configuration not stated)	6.00	< 4.30	6.20	–
CN(C)c1ccc(-c2cc3nccnc3c(OC[C@H]3CCCNC3)n2)cn1	–	4.70	5.80	> 50 µM (inactive)
Cn1ccnc1-c1nc(NCc2ccccc2Cl)cc(C2CC2)n1	6.10	6.20	6.10	–
O=C1CCCCCC1(Cc1cnc[nH]1)c1ccc(Cl)cc1Cl (configuration not stated)	6.60	< 4.30	6.49	–
O=C(NCCc1csc(-c2cccc(F)c2)n1)c1ccco1	5.80	5.00	5.89	–
Cc1ncsc1CNc1cnc(-c2ccc3c(c2)OCCO3)c(-c2cnn(C)c2)c1	4.40	< 4.30	4.70	–
O=C(NCCc1ccccc1Cl)c1cccn1-c1cccnc1	6.30	< 4.30	6.30	–
c1cc(-c2ncc(-c3ccn[nH]3)s2)ccn1	6.60	< 4.30	6.60	–
O=[N+]([O-])c1ccc(-c2nnn(-c3cccnc3)n2)o1	–	5.20	7.20	> 50 µM (inactive)
CCCc1cc(C(=O)Nc2ncc(-c3cccc(Br)c3)n2C)n[nH]1	5.40	< 4.30	5.60	–
O=C(Nc1nc(-c2ccccn2)cs1)c1ccc(S(=O)(=O)N2CCCCC2)cc1	6.20	5.60	6.40	–
Cc1cc(N2CCc3ccccc3C2)nc(Nc2ccc(S(=O)(=O)N3CCOCC3)cc2)n1	–	< 4.30	4.60	> 50 µM (inactive)
CCOc1ccc(Nc2ccc(S(=O)(=O)N3CCN(C)CC3)cc2[N+](=O)[O-])cc1OCC	–	< 4.30	5.49	> 50 µM (inactive)
CN(Cc1cc2ccccc2s1)c1ncc2c(N)nc(N)nc2n1	5.49	4.70	6.10	–
COc1ncc(-c2ccc3nccc(-c4ccncc4)c3c2)cc1NS(C)(=O)=O	4.60	5.30	4.89	–
COc1cccc(CN(C)Cc2nc(N)c3c(C)c(C)sc3n2)c1	4.80	< 4.30	4.80	–

SMILES	pIC50	pIC50 [1]	pIC50 [2]	IC50
CN1CCN(c2nc(-c3ccc(Cl)cc3)c3c(N)n(C)nc3n2)CC1	6.00	4.60	6.10	–
N#Cc1cc([N+](=O)[O-])ccc1NC1CCCCCC1	5.70	< 4.30	5.89	–
O=C(N1CCc2ccccc2CC1)C1(C(=O)N2CCC(n3c(=O)[nH]c4ncccc43)CC2)CC1	6.10	< 4.30	6.20	–
CNc1cncc(C2CCCN2C(=O)Cc2ccc3ccccc3c2)n1 (configuration not stated)	6.80	< 4.30	6.80	–
Cc1nc(C(=O)Nc2ccc3c(c2)OCO3)nn1-c1ccc(Cl)cc1	5.80	< 4.30	6.00	–
N#Cc1cnc(Nc2cccc(CCN3CCOCC3)c2)nc1Nc1ccccc1C(N)=O	5.49	7.89	5.70	–
N#Cc1ccc(Br)cc1[N+](=O)[O-]	6.10	4.40	7.20	–
COc1ccc(-c2csc(NC(=O)c3ccc([N+](=O)[O-])s3)n2)cc1OC	7.00	5.20	7.10	–
N#Cc1nc(C=Cc2ccccc2)oc1NCc1cccnc1	6.40	4.80	6.40	–
NS(=O)(=O)c1ccc(Nc2nccc(-c3cnn4ncccc34)n2)cc1	4.80	6.49	6.10	–
CC(C)COC(=O)Nc1ccc(N2CCC(CNS(=O)(=O)c3ccccc3)CC2)c(F)c1	5.10	< 4.10	5.10	–
COc1ccc2ncc(F)c(CCN3CC[C@@H](NC(=O)c4cc5c(s4)CCC5)[C@@H](O)C3)c2n1	6.89	6.89	7.30	–
COc1ccc(C(=O)Nc2cc(C(F)(F)F)ccc2N2CCOCC2)c(OC)c1	6.10	< 4.30	6.49	–
COc1ccc(Cl)cc1CC(=O)Nc1n[nH]c(-c2ccccn2)n1	–	< 4.30	5.00	> 50 µM (inactive)
COc1ccc(NS(=O)(=O)c2cccc(NC(=O)c3cc(F)cc(F)c3)c2)cc1	6.30	< 4.30	6.30	–
COc1ccc(C)cc1-c1csc(NC(=O)C(C)n2ccnc2)n1 (configuration not stated)	7.00	< 4.30	7.00	–
CC1CCCCN1C(=O)NCCc1coc(-c2ccc(F)cc2)n1 (configuration not stated)	6.49	< 4.30	6.49	–

Reference: PubChem BioAssay AID1159565 (GlaxoSmithKline (GSK), 2015)
